Common to all, as to assay type: cell-based, Sprague-Dawley (SD) rats
In assay [1] the test system is caspase 8. The assay is described as follows: Caspase 8 activity ELISA in LPS-treated NSCs. The settings on record: LPS (100 ng/ml) exposure, Day 7, vs LPS-treated NSCs without treatment, p<0.05.
The test system of assay [2] is Bax. The assay is described as follows: Real-time RT-PCR of Bax mRNA in IM-treated NSCs. The settings on record: Day 3, Day 5, and Day 7 of IM-treated NSCs. The method, then: (§1) All animals used were treated in accordance with the Animal Care and Use Committee guideline at Taipei Veterans General Hospital. The protocol of the present study was also approved by the committee. Adult Sprague-Dawley (SD) rats (8 weeks old, 250 g) were anesthetized with intraperitoneal phenobarbital (Sigma, USA), and the location of their brains was mapped. Then, the brain […]. In brief, tissues from the hippocampus of adult rats were dissociated and incubated in Hank's balanced salt solution (HBSS) containing collagenase (78 units/ml) and hyaluronidase (38 units/ml) for 10 minutes at 37°C. The tissues were then mechanically dissected and placed in a trypsin solution (1.33 mg/ml) at 37°C for another 10 minutes. Dissociated cells were then centrifuged at 150 GG for 5 minutes. […] Viable cells were counted by trypan blue exclusion and plated as 5000 cells/200 µL per well in 96-well plates (Coming Inc, Acton, MA, USA) with no substrate pretreatment. […]
(§2) For real-time RT-PCR, the total RNA was extracted using the RNAeasy kit (Qiagen, Valencia, CA, USA). […] The quantification in the unknown samples was performed with LightCycler Relative Quantification Software version 3.3 (Roche Molecular Systems, Alameda, CA, USA). […]

Assay [3] concerns Bcl-2 protein. As to the kind of experiment: Bcl-2 protein expression in NSCs by western blot and immunohistochemistry. (In general: Immunoblotting shows a protein as a band on a membrane.)
Assay [4] deals with MAP2. The assay is described as follows: Real-time RT-PCR of MAP2 mRNA in IM-treated NSCs. As to conditions: Days 5 and Day 7 IM-treated NSCs vs non IM-treated NSCs, p<0.05. The method, then: as §1, §2
The test system of assay [5] is IL-1β. The assay is described as follows: IL-1β ELISA in LPS-treated NSCs. As to conditions: vs only LPS-treated NSCs, IM 3 µM, p<0.05.
Assay [6] has as its system NSCs. The assay is described as follows: Immunofluorescent assay of MAP-2-positive cells in differentiating NSCs. The settings on record: Day 7 culture of IM-treated NSCs vs non IM-treated NSCs, p<0.05.
The subject of assay [7] is LPS-treated NSCs. The assay is described as follows: MTT cell survival of LPS-treated NSCs. As to conditions: vs the only LPS-treated NSCs; LPS 100 ng/ml.
Assay [8] concerns NSCs. As to the kind of experiment: Microdialysis with HPLC-ECD of 5-HT in the culture medium of IM-treated NSCs. The settings on record: Day 7 and Day 14, IM-treated NSCs vs NSCs without IM treatment, p<0.05.
Assay [9] concerns Bcl-2. As to the kind of experiment: Real-time RT-PCR of Bcl-2 mRNA in IM-treated NSCs. Here is the method:
as §1, §2
A general note: Real-time PCR tracks product formation cycle by cycle.

Assay [10] deals with caspase 3. The assay is described as follows: Caspase 3 activity ELISA in LPS-treated NSCs. The settings on record: LPS (100 ng/ml) exposure, Day 7, vs LPS-treated NSCs without treatment, p<0.05.
Assay [11] relates to LPS-treated NSCs. The assay is described as follows: TUNEL assay of LPS-induced apoptosis in NSCs. The settings on record: LPS-treated NSCs, vs LPS-treated NSCs without treatment.

For `CN(C)CCCN1c2ccccc2CCc2ccccc21` [IM, imipramine], in assay [1], the “apoptotic activities of caspase 8” value is given as “significantly decreased”. Further, in assay [2], the “expression of Bax” value is on record as “not activated”. Also, the “protein expression level of Bcl-2 in LPS-treated NSCs” value in [3] (3 µM IM vs 1, 2 µM IM-LPS-treated, only LPS-treated and control groups) is given as “significantly increased”. For the same molecule, the “protein levels of Bcl-2 (western blot)” value in [3] (Day 3 IM-treated NSCs vs Day 3 non-IM-treated NSCs, p<0.05) is reported as “higher”. In addition, the “expression levels of the Bcl-2 protein (western blot)” value in [3] (Day 7 IM-treated NSCs vs Day 3 or Day 5 IM-treated NSCs, p<0.05) is “significantly increased”. Also, the “protein expression of Bcl-2 (immunohistochemistry)” value in [3] (Day 7 IM-treated NSCs vs NSCs without the IM treatment) is on record as “significantly increased”. Moreover, the “Bcl-2 expression in NSCs” value in assay [3] (treatment with IM only or BDNF only) is listed as “can activate Bcl-2 expression”. Moreover, the “mRNA levels of MAP2” value in [4] is recorded as “significantly increased”. The “IL-1β production in the LPS-treated NSCs” value in assay [5] was “effectively reduces”. Further, the “percentages of MAP-2-positive cells” value in [6] was “significantly increased”. Also, in assay [7], the “cell survival rates in the LPS-treated NSCs” value is “significantly increases”. Besides, the “5-HT levels of the culture mediums” value in assay [8] was “significantly higher”. For the same molecule, the “levels of Bcl-2 mRNA” value in [9] (1, 3, and 5 µM IM, Day 7, vs Day 7 non-IM-treated NSCs) was “significantly increased”. Also, the “mRNA levels of Bcl-2” value in assay [9] (Days 5 and Day 7 IM-treated NSCs vs non IM-treated NSCs, p<0.05) is on record as “significantly increased”. Moreover, in [10], the “apoptotic activities of caspase 3” value is on record as “significantly decreased”. Moreover, in assay [11], the “LPS-induced apoptosis (TUNEL assay)” value is listed as “protected against LPS-induced apoptosis”.

Source of the values: patent EP2077092A2, “System and Methods for Screening or Analyzing Targets” (Taipei Veterans General Hospital, priority 2007, dated 2009).
